Experiment [1] concerns the target T1, Poly [ADP-ribose] polymerase tankyrase-2 (Homo sapiens) (UniProt Q9H2K2).
T1 sequence (whole entry): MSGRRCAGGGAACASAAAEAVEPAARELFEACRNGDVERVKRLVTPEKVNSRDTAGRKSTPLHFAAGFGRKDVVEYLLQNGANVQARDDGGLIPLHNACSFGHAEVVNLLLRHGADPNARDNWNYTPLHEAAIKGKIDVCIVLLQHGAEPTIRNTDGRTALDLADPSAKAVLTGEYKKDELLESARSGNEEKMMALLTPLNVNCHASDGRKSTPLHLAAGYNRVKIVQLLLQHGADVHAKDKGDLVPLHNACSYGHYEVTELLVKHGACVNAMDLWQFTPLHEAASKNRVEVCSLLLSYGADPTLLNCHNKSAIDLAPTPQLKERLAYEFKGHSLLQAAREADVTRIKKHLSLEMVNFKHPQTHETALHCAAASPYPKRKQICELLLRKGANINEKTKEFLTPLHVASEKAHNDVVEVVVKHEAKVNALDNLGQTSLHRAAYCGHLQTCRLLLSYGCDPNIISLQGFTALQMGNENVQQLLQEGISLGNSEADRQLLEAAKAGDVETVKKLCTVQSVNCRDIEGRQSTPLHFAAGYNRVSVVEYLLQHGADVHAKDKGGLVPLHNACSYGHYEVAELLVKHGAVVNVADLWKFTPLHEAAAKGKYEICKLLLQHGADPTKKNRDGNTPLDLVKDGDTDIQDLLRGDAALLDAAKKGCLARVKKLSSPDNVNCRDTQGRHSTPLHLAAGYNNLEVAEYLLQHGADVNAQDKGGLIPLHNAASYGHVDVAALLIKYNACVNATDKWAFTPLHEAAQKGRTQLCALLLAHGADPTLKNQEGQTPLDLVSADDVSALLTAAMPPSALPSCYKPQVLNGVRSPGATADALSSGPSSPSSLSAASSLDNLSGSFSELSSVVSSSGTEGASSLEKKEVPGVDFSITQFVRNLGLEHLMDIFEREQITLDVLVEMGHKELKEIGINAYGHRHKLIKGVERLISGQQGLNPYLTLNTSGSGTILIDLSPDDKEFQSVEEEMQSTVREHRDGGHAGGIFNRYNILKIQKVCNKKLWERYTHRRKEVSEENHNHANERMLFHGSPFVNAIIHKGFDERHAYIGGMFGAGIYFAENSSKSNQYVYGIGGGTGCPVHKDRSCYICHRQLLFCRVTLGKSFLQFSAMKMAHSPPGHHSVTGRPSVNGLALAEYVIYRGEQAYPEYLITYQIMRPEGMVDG
The experiment in a line: Inhibition of TNKS2 (unknown origin) at 10 uM relative to control.

Experiment [2] deals with Poly [ADP-ribose] polymerase 2 (Homo sapiens) (UniProt Q9UGN5). The experiment is described as follows: Inhibition of N-terminal GST tagged human PARP2 (2 to 583 residues) expressed in baculovirus infected Sf9 cells assessed as reduction in NAD+-dependent ADP ribosylation using histone as substrate at 10 uM incubated for 1 hr in presence of biotinylated NAD+ and activated DNA by chemiluminescence based microplate reader assay relative to control.

Experiment [3] addresses T2, Protein mono-ADP-ribosyltransferase PARP12 (Homo sapiens) (UniProt Q9H0J9).
T2 sequence (whole entry): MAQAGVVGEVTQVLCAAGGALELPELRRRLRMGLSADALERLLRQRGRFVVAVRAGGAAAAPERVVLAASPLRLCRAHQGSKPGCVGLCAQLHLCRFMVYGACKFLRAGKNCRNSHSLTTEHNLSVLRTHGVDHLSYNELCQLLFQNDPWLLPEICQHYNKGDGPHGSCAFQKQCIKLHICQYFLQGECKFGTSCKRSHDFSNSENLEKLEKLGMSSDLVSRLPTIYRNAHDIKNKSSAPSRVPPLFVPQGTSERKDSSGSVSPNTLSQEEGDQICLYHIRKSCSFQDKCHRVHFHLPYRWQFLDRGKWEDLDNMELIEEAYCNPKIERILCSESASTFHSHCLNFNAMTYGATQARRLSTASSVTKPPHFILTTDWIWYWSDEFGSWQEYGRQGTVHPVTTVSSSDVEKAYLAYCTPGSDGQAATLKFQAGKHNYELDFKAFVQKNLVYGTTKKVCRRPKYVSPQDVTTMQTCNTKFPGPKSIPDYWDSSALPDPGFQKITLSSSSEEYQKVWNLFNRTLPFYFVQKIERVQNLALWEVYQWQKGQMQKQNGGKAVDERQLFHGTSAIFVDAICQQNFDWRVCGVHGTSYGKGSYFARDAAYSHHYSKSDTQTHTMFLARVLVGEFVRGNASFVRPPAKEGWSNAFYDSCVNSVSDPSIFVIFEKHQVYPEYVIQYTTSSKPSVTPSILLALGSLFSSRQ
The experiment in a line: Inhibition of N-terminal His-GST tagged human PARP12 (500 to 701 residues) expressed in baculovirus infected Sf9 cells assessed as reduction in NAD+-dependent ADP ribosylation using histone as substrate at 10 uM incubated for 1 hr in presence of biotinylated NAD+ and activated DNA by chemiluminescence based microplate reader assay relative to control.

Bounds are passed on as bounds.

Chain of Poly [ADP-ribose] polymerase 2 (Homo sapiens) (Q9UGN5 whole entry, the tested form may be a part): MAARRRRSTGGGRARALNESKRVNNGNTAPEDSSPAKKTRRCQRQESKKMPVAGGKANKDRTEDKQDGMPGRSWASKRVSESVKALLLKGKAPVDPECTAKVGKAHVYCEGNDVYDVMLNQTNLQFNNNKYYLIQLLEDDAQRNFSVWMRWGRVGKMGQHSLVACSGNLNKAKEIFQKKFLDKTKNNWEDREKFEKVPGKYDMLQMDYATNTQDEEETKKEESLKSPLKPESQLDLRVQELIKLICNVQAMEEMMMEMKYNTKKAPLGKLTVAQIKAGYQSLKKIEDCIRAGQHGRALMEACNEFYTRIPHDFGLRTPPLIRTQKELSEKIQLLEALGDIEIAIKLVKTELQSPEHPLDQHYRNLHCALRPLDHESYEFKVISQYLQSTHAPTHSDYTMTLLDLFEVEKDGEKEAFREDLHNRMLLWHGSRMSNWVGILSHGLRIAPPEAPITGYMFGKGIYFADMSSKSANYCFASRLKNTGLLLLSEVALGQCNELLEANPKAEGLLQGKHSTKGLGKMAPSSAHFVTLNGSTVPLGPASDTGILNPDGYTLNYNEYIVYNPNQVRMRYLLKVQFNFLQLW

In the case of `CNC(=O)[C@H](CNC(=O)CCc1nc2ccccc2[nH]c1=O)NC(=O)c1ccc2c(c1)CCCC2=O`, the inhibition in experiment [1], in experiment [2] and in experiment [3] was < 25% each time.

As for `CC1(CNC(=O)COc2cccc3c2CCCC3=O)CCN(C(=O)CCc2nc3ccccc3[nH]c2=O)CC1`, the inhibition (commonly the drop in the measured response relative to a control, in per cent) was > 50% in experiment [1], 100% in experiment [2] and 16% in experiment [3].

Values taken from ChEMBL document CHEMBL4699460, “Integrating DNA-encoded chemical libraries with virtual combinatorial library screening: Optimizing a PARP10 inhibitor” (Bioorg Med Chem Lett, 2020).
